Measured values from paper PMC9104108, “Purification and Identification of Novel Myeloperoxidase Inhibitory Antioxidant Peptides from Tuna (Thunnas albacares) Protein Hydrolysates” (Molecules, 2022).
Where no end group is shown, it is not given here.

Key:
MPO [1] = target: T1, MPO (Homo sapiens, UniProt P05164); assay: MPO inhibitor screening assay kit, chlorination assay; format: biochemical; settings: APF substrate, synthesized peptides
T1 construct: purchased Abnova, Taiwan
T1 sequence (P05164 49-745): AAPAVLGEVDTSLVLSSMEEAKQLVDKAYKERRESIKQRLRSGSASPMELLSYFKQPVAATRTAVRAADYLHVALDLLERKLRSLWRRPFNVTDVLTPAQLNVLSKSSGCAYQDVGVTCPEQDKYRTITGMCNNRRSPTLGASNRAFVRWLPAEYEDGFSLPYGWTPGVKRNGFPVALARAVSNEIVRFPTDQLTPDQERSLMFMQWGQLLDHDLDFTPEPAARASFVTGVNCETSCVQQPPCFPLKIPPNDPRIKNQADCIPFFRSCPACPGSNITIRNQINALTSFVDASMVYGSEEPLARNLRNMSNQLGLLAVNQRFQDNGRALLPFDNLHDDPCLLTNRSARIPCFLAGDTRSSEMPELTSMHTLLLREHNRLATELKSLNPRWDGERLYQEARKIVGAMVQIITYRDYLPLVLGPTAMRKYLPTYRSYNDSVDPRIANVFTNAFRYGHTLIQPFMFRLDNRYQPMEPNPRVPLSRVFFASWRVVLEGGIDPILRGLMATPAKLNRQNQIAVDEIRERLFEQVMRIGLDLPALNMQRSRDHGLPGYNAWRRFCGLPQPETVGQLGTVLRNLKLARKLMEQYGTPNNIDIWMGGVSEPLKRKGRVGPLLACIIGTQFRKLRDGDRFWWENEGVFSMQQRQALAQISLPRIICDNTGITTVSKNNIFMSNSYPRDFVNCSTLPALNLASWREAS
Excerpt: (§1) The inhibitory effect of peptides on MPO was estimated using an MPO inhibitor screening assay kit (Abnova, Taiwan), which was used to assess in both the peroxidation and chlorination activities of MPO. Peroxidation assay utilizes the peroxidase component of MPO. During the reaction, hydrogen peroxide reacts with 10-acetyl-3,7-dihydroxyphenoxazine (ADHP) to yield resorufin, a highly fluorescent compound. The chlorination assay utilizes non-fluorescent 2-[6-(4-aminophenoxy)-3-oxo-3H-xanthen-9-yl]-benzoic acid (APF), which is selectively cleaved by hypochlorite to produce fluorescein. The 4-aminobenzhydrazide was used as positive control. The MPO inhibitory activity was determined according to the kit instructions.

MPO [2] = target: T1, MPO; assay: MPO inhibitor screening assay kit, peroxidation assay; format: biochemical; settings: ADHP substrate, synthesized peptides
Excerpt: as §1

Substance	IC50 (MPO [1])	IC50 (MPO [2])
GELALKD [GELALKD]	122 µM	> 500 µM
DVSDLDAD	296 µM	> 500 µM
DASHGHSG	> 500 µM	> 500 µM

The remaining lines, values ahead:

IC50 (MPO [1])	IC50 (MPO [2])	Substance
108 µM	40.3 µM	KFCSGHA [KFCSGHA]
32.3 µM	17.9 µM	ACGSDGK [ACGSDGK]
> 500 µM	> 500 µM	GDAFDKA [GDAFDKA]
